Converted amounts (≈) assume the structure as drawn.
How the values were obtained:
[1] = tested on: Staphylococcus aureus; test: Antibacterial activity against vancomycin-intermediate methicillin-resistant Staphylococcus aureus assessed as post-antibiotic sub-MIC effect at 0.2 times MIC concentration pretreated with 6 times MIC concentration for 1 hr followed by 1:1000 dilution by viable plate count method; type: functional
[2] = tested on: Enterobacter cloacae; test: Antibacterial activity against Enterobacter cloacae assessed as post antibiotic effect; type: functional
[3] = tested on: Staphylococcus aureus; test: Antibacterial activity against vancomycin-sensitive methicillin-resistant Staphylococcus aureus assessed as post-antibiotic sub-MIC effect at 0.3 times MIC concentration pretreated with 6 times MIC concentration for 1 hr followed by 1:1000 dilution by viable plate count method; type: functional
[4] = tested on: Enterobacter cloacae; test: Antibacterial activity against Enterobacter cloacae assessed as post-antibiotic sub-MIC effect at 0.3 times MIC concentration pretreated with 2 times MIC concentration for 1 hr followed by 1:1000 dilution by viable plate count method; type: functional
[5] = tested on: Staphylococcus aureus; test: Antibacterial activity against vancomycin-sensitive methicillin-resistant Staphylococcus aureus assessed as post-antibiotic sub-MIC effect at 0.3 times MIC concentration pretreated with 10 times MIC concentration for 1 hr followed by 1:1000 dilution by viable plate count method; type: functional
[6] = tested on: Escherichia coli; test: Antibacterial activity against Escherichia coli assessed as post-antibiotic sub-MIC effect at 0.3 times MIC concentration pretreated with 6 times MIC concentration for 1 hr followed by 1:1000 dilution by viable plate count method; type: functional
[7] = tested on: Haemophilus influenzae; test: Antibacterial activity against beta-lactamase deficient ampicillin-resistant Haemophilus influenzae assessed as post-antibiotic sub-MIC effect at 0.2 times MIC concentration pretreated with 10 times MIC concentration for 1 hr followed by 1:1000 dilution by viable plate count method; type: functional
[8] = tested on: Streptococcus pneumoniae; test: Antibacterial activity against penicillin-resistant Streptococcus pneumoniae assessed as post-antibiotic sub-MIC effect at 0.4 times MIC concentration pretreated with 10 times MIC concentration for 1 hr followed by 1:1000 dilution by viable plate count method; type: functional
[9] = Half life in patient serum at 100 mg, iv followed by 50 mg every 12 hrs after 60 mins post dose; type: ADME, organism-based; details: human
[10] = tested on: Klebsiella pneumoniae; test: Antibacterial activity against Klebsiella pneumoniae assessed as post antibiotic effect at 2 times MIC concentration incubated for 1 hr measured after 1:1000 dilution by viable plate count method; type: functional
[11] = tested on: Streptococcus pneumoniae; test: Antibacterial activity against penicillin-intermediate Streptococcus pneumoniae assessed as sub-MIC effect at 0.3 times MIC concentration incubated for 1 hr by viable plate count method; type: functional
[12] = tested on: Staphylococcus aureus; test: Antibacterial activity against vancomycin-sensitive methicillin-resistant Staphylococcus aureus assessed as post-antibiotic sub-MIC effect at 0.2 times MIC concentration pretreated with 6 times MIC concentration for 1 hr followed by 1:1000 dilution by viable plate count method; type: functional
[13] = tested on: Acinetobacter baumannii; test: Antibacterial activity against multidrug-resistant Acinetobacter baumannii producing OXA-24 and OXA-51 beta-lactamases assessed as post-antibiotic sub-MIC effect at 0.4 times MIC concentration pretreated with 2 times MIC concentration for 1 hr followed by 1:1000 dilution by viable plate count method; type: functional
[14] = tested on: Streptococcus pneumoniae; test: Antibacterial activity against penicillin-intermediate Streptococcus pneumoniae assessed as sub-MIC effect at 0.4 times MIC concentration incubated for 1 hr by viable plate count method; type: functional
[15] = tested on: Streptococcus pneumoniae; test: Antibacterial activity against penicillin-resistant Streptococcus pneumoniae assessed as sub-MIC effect at 0.4 times MIC concentration incubated for 1 hr by viable plate count method; type: functional
[16] = tested on: Haemophilus influenzae; test: Antibacterial activity against beta-lactamase deficient ampicillin-resistant Haemophilus influenzae assessed as post-antibiotic sub-MIC effect at 0.4 times MIC concentration pretreated with 10 times MIC concentration for 1 hr followed by 1:1000 dilution by viable plate count method; type: functional
[17] = tested on: Staphylococcus aureus; test: Antibacterial activity against vancomycin-intermediate methicillin-resistant Staphylococcus aureus assessed as sub-MIC effect at 0.2 times MIC concentration incubated for 1 hr by viable plate count method; type: functional
[18] = tested on: Haemophilus influenzae; test: Antibacterial activity against amoxicillin, clavulanate-resistant Haemophilus influenzae expressing beta-lactamase assessed as post-antibiotic sub-MIC effect at 0.3 times MIC concentration pretreated with 6 times MIC concentration for 1 hr followed by 1:1000 dilution by viable plate count method; type: functional
[19] = tested on: Streptococcus pneumoniae; test: Antibacterial activity against Streptococcus pneumoniae infected in neutropenic mouse thighs assessed as post antibiotic effect; type: functional, Thigh muscle
[20] = tested on: Escherichia coli; test: Antibacterial activity against Escherichia coli assessed as post-antibiotic sub-MIC effect at 0.4 times MIC concentration pretreated with 6 times MIC concentration for 1 hr followed by 1:1000 dilution by viable plate count method; type: functional
[21] = tested on: Haemophilus influenzae; test: Antibacterial activity against amoxicillin, clavulanate-resistant Haemophilus influenzae expressing beta-lactamase by macrodilution method; type: functional
[22] = tested on: Staphylococcus aureus; test: Antibacterial activity against vancomycin-sensitive methicillin-resistant Staphylococcus aureus assessed as sub-MIC effect at 0.2 times MIC concentration incubated for 1 hr by viable plate count method; type: functional
[23] = tested on: Streptococcus pneumoniae; test: Antibacterial activity against penicillin-intermediate Streptococcus pneumoniae by macrodilution method; type: functional
[24] = tested on: Acinetobacter baumannii; test: Antibacterial activity against Acinetobacter baumannii assessed as post-antibiotic sub-MIC effect at 0.4 times MIC concentration pretreated with 6 times MIC concentration for 1 hr followed by 1:1000 dilution by viable plate count method; type: functional
[25] = tested on: Haemophilus influenzae; test: Antibacterial activity against amoxicillin, clavulanate-resistant Haemophilus influenzae expressing beta-lactamase assessed as post-antibiotic sub-MIC effect at 0.2 times MIC concentration pretreated with 10 times MIC concentration for 1 hr followed by 1:1000 dilution by viable plate count method; type: functional
[26] = tested on: Enterococcus faecalis; test: Antibacterial activity against vancomycin-resistant Enterococcus faecalis assessed as sub-MIC effect at 0.2 times MIC concentration incubated for 1 hr by viable plate count method; type: functional
[27] = tested on: Haemophilus influenzae; test: Antibacterial activity against beta-lactamase deficient ampicillin-resistant Haemophilus influenzae assessed as post-antibiotic sub-MIC effect at 0.3 times MIC concentration pretreated with 10 times MIC concentration for 1 hr followed by 1:1000 dilution by viable plate count method; type: functional
[28] = tested on: Staphylococcus aureus; test: Antibacterial activity against vancomycin-intermediate methicillin-resistant Staphylococcus aureus assessed as sub-MIC effect at 0.3 times MIC concentration incubated for 1 hr by viable plate count method; type: functional
[29] = tested on: Streptococcus pneumoniae; test: Antibacterial activity against penicillin-resistant Streptococcus pneumoniae assessed as post-antibiotic sub-MIC effect at 0.3 times MIC concentration pretreated with 10 times MIC concentration for 1 hr followed by 1:1000 dilution by viable plate count method; type: functional
[30] = tested on: Streptococcus pneumoniae; test: Antibacterial activity against penicillin-susceptible Streptococcus pneumoniae by macrodilution method; type: functional
[31] = tested on: Enterococcus faecalis; test: Antibacterial activity against vancomycin-resistant Enterococcus faecalis assessed as post antibiotic effect at 10 times MIC concentration incubated for 1 hr measured after 1:1000 dilution by viable plate count method; type: functional
[32] = tested on: Escherichia coli; test: Antibacterial activity against Escherichia coli assessed as sub-MIC effect at 0.3 times MIC concentration incubated for 1 hr by viable plate count method; type: functional
[33] = tested on: Acinetobacter baumannii; test: Antibacterial activity against Acinetobacter baumannii assessed as sub-MIC effect at 0.2 times MIC concentration incubated for 1 hr by viable plate count method; type: functional
[34] = tested on: Streptococcus pneumoniae; test: Antibacterial activity against penicillin-resistant Streptococcus pneumoniae assessed as post antibiotic effect at 10 times MIC concentration incubated for 1 hr measured after 1:1000 dilution by viable plate count method; type: functional

## CN(C)c1cc(NC(=O)CNC(C)(C)C)c(O)c2c1C[C@H]1C[C@H]3[C@H](N(C)C)C(O)=C(C(N)=O)C(=O)[C@@]3(O)C(O)=C1C2=O [TIGECYCLINE]
[1]
  PAE: 5.6 h
[2]
  PAE: 2 h
[3]
  PAE: 4.9 h
[4]
  PAE: 4.9 h
[5]
  PAE: 5.2 h
[6]
  PAE: 2.9 h
[7]
  PAE: 2.8 h
[8]
  PAE: 10.2 h
[9]
  half-life: 40 h
[10]
  PAE: 1.7 h
[11]
  PAE: 5.7 h
[12]
  PAE: 3.7 h
[13]
  PAE: 3 h
[14]
  PAE: 7.7 h
[15]
  PAE: 0.7 h
[16]
  PAE: 2.8 h
[17]
  PAE: 2 h
[18]
  PAE: 4.7 h
[19]
  PAE: 8.9 h
[20]
  PAE: 3.3 h
[21]
  MIC: 0.12 µg/mL
[22]
  PAE: 0.2 h
[23]
  MIC: 0.06 µg/mL (≈ 0.102 µM)
[24]
  PAE: > 11.2 h
[25]
  PAE: 3.9 h
[26]
  PAE: 0.4 h
[27]
  PAE: 2.8 h
[28]
  PAE: 2.9 h
[29]
  PAE: 10.2 h
[30]
  MIC: 0.03 µg/mL (≈ 0.0512 µM)
[31]
  PAE: 6 h
[32]
  PAE: 0 h
[33]
  PAE: 0.3 h
[34]
  PAE: 4.8 h

Source: ChEMBL document CHEMBL1629634, “Postantibiotic effect of tigecycline against 14 gram-positive organisms” (Antimicrob Agents Chemother, 2009)
